Where “and” joins values, the source holds several entries; their conditions need not be identical. Identical values can stand only once. Where no end group is shown, it is not given here.
Legend:
LHRH = LHRH (Homo sapiens, UniProt P01148); assay: Reverse hemolytic plaque assay, LHRH-stimulated LH release from pituitary cells; assay type: cell-based
Procedure: A reverse hemolytic plaque assay (Smith, et al.), Method in Enzymology, 124, p.
Plaques were analyzed by determining plaque area with an image analysis (Bioquant or Image Technology Corp. Model 300) of 125×-500× microscopic enlargements.

I^125 ACTH (1-39) = molecular target: T1, I^125 ACTH (1-39) (Homo sapiens, UniProt P01189); assay: ^125 I-ACTH binding to peptide-coated microtiter wells; conditions: for CPM Bound ^125 I-ATCH: Table 11; for CPM bound ^125 I-ACTH: Table 10
T1 construct: I^125 ACTH (1-39) (New England Nuclear Boston, MA); purchased New England Nuclear (Boston, MA)
T1 sequence (P01189 138-176 limits assumed): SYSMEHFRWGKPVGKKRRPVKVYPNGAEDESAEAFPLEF
Procedure: Utilizing techniques described in Example 1B, polyvinyl microtiter wells were coated with 3'-5' HTCA from a 1 mM solution thereof or with BSA.
The BSA and 3'-5' HTCA coated wells were washed and then treated with one of three solutions of I^125 ACTH (1-39) (New England Nuclear Boston, MA) having different concentrations. After a forty five minute incubation period the solution was removed and the microtiter wells extensively washed. The microtiter wells were separated and assayed for iodine^125content in a Beckman Gamma 5500 gamma counter. Bound ^125 I-ACTH was measured in duplicate at three concentrations in the absence and presence of excess unlabelled ACTH.
Utilizing the cRNA sequence and HTCA sequence shown in Table 8 of Example 1A, a series of peptides having a carboxy-terminal portion of the HTCA amino acid were synthesized. A pentamer (5-mer) contained the amino acid sequence: H2 N-Phe-His-Gly-Val-Arg-COOH. A decamer (10-mer) contained the amino acid sequence: H2 N-[…]COOH. A twenty membered peptide (20-mer) contained the amino acids sequence: H2 N-[…] Val-Arg-COOH. Each of thes peptides was used to coat microtiter wells and the coated wells tested for the ability to bind ^125 I-ACTH as described in Example 1C.
A 24-mer HTCA variant (R-HTCA) with reversed amino acid sequence directionality (amino-terminal and carboxy-terminal ends being reversed) was synthesized and had the following sequence: H2 N-[…] Arg-His-Leu-His-Val-Gly-COOH. The well-coating and ^125 I-ACTH binding procedures were performed as described in Example 1-C and the resultant data shown in Table 11.

^125 I-ACTH = molecular target: T2, ^125 I-ACTH (Homo sapiens, UniProt P01189); assay: Solid-phase binding of ^125 I-ACTH to 5'-3' and 3'-5' complementary peptides; conditions: wells coated 2 mg/ml
T2 construct: ACTH plates+immunized rabbit immunoglobulin
T2 sequence (P01189 138-176 limits assumed): T1 sequence (P01189 138-176 limits assumed)
Procedure: A solid-phase binding assay was used to determine the ability of both the 5'-to-3' and the 3'-to-5'-complementary-RNA-strand peptides (see Examples 1A and 1C) to bind ^125 I-ACTH. The peptides were diluted in phosphate-buffered saline (140 mM-NaCl/3 mM-KCl/0.1% NaN3 /20 mM-phosphate buffer, pH 7.4) to 2 mg/ml, and 0.2 ml/well was placed into poly(vinyl chloride) micro-titre plates (Becton and Dickinson, Oxnard, CA, U.S.A.). After 18 h at 4° C., unbound peptide was removed by washing three times with phosphate-buffered saline containing 0.1% bovine serum albumin (Sigma Chemical Co., St. Louis, MO, U.S.A.). ^125 I-ACTH was diluted to various concentrations with phosphate-buffered saline containing 0.1% bovine serum albumin and incubated in peptide-coated wells for 60 minutes at 4° C. […] After incubation, unbound radiolabel was washed out with phosphate-buffered saline containing 0.1% bovine serum albumin, and the radioactivity of individual wells was measured by gamma-radiation counting. The amount of specifically bound radioactivity was determined by blocking ^125 I-ACTH binding with unlabelled ACTH. Additional controls included coating wells with insulin or bovine serum albumin (2 mg/ml) before the addition of the ^125 I-ACTH.

ACTH (1-24) = molecular target: T3, ACTH (1-24) (Homo sapiens, UniProt P01189); assay: ELISA binding of ACTH to HTCA-coated microtiter wells
T3 construct: 10 ug synthetic ACTH (1-24) in PBS-Tween buffer; purchased Organon (West Orange, N.J.); host or cells: chemical synthesis
Procedure: From 1 to 25 micrograms (ug) per well of HTCA or insulin in carbonate-bicarbonate coating buffer were added to 96 well round bottom microtiter plates and incubated at 4° C. for 8 hr. The plates were then washed with phosphate buffered saline (PBS)-Tween 20 (Sigma Chemical Co., St. Louis, Mo.) buffer.
To the insulin-coated wells and to some of the HTCA-coated wells was added 10 ug synthetic ACTH (1-24) in PBS-Tween buffer. Control wells (HTCA alone) contained only PBS-Tween. The plates were incubated at room temperature for 2 hr. and then washed three times with PBS-Tween buffer. Rabbit antisera directed against the amide of synthetic ACTH 1-13 (Accurate Biochemicals, Westbury N.Y.) was added to each well and the plates were incubated for 1 hr at room temperature. Following 3 washes with PBS-Tween buffer, alkaline phosphatase-conjugated goat anti-rabbit Ig G (Miles Laboratories, Elkharbt, Ind.) in PBS-Tween buffer (1:300 dilution) was added. After inculation at room temperature for 1 hr, the plates were washed three times with PBS-Tween buffer and each well was treated with 200 microliters (ul) of p-nitrophenyl phosphate (1 mg/ml in carbonate-bicarbonate buffer) for 11/2 hr. at room temperature. The enzymatic reaction was then stopped by the addition of 3N NaOH (50 ul) to each well and the optical absorbance of p-nitrophenol the alkaline phosphatase product, was measured at 405 nm. The ACTH bound to the coated microtiter wells was measured by this enzyme-linked immunoabsorbent assay (ELISA).
A microtiter plate was prepared and treated generally as described above but was coated with 3.7 nmol/well HTCA. To each coated well was added a solution of 3.7 nmol ACTH combined with the amounts of HTCA designated on the abscissa in FIG. 4.

[1] = conc ^125 I-ATCH, + excess ACTH

C[C@H](N)C(=O)NCC(=O)N[C@H]1CSSC[C@@H](C(=O)O)NC(=O)[C@H](CO)NC(=O)[C@H]([C@@H](C)O)NC(=O)[C@H](Cc2ccccc2)NC(=O)[C@H]([C@@H](C)O)NC(=O)[C@H](CCCCN)NC(=O)[C@H](Cc2c[nH]c3ccccc23)NC(=O)[C@H](Cc2ccccc2)NC(=O)[C@H](Cc2ccccc2)NC(=O)[C@H](CC(N)=O)NC(=O)[C@H](CCCCN)NC1=O [Somatostatin, reference compound]
plaque area, percentage response to control assay (LHRH; 5 × 10^-10 M LHRH + Somatostatin 10^-4 M, Exp. 1 (Pre)): 103%

RVGHFVEAPALRHALLPARHLHVG [R-HTCA]
binding of ^125 I-ACTH to coated wells (in words) (I^125 ACTH (1-39)): significant affinity for ACTH
CPM Bound ^125 I-ATCH (I^125 ACTH (1-39); 1:9 dil. ^125 I-ATCH): 1,101 CPM and 1,161 CPM
CPM Bound ^125 I-ATCH (I^125 ACTH (1-39); 1:9 dil. ^125 I-ATCH, + Excess ACTH): 65 CPM and 69 CPM
CPM Bound ^125 I-ATCH (I^125 ACTH (1-39); conc ^125 I-ATCH): 10,392 CPM and 10,709 CPM

SRAQSIGPVL [5CA-LHRH, LEU--VAL--PRO--GLY--ILE--SER--GLN--ALA--ARG--SER]
plaque area, percentage response to control assay (LHRH; 5CA-LHRH alone 10^-5 M, Exp. 3): 2.7%
plaque area, percentage response to control assay (LHRH; 5CA-LHRH alone 10^-6 M, Exp. 3): 0.5%
plaque area, percentage response to control assay (LHRH; 5CA-LHRH alone 10^-7 M, Exp. 3): 0.5%
plaque area, percentage response to control assay (LHRH; 5 × 10^-10 M LHRH + 10^-4 M, Exp. 1 (Pre)): 77%
plaque area, percentage response to control assay (LHRH; LHRH + 10^-4 M, Exp. 2 (No)): 61%
plaque area, percentage response to control assay (LHRH; LHRH + 10^-4 M, Exp. 4 (Pre)): 52%
plaque area, percentage response to control assay (LHRH; LHRH + 10^-4 M, Exp. 5 (No)): 52%
plaque area, percentage response to control assay (LHRH; LHRH + 10^-5 M, Exp. 1 (Pre)): 82%
plaque area, percentage response to control assay (LHRH; LHRH + 10^-5 M, Exp. 2 (No)): 52%
plaque area, percentage response to control assay (LHRH; LHRH + 10^-5 M, Exp. 3 (Pre)): 68%
plaque area, percentage response to control assay (LHRH; LHRH + 10^-5 M, Exp. 4 (Pre)): 63%
plaque area, percentage response to control assay (LHRH; LHRH + 10^-5 M, Exp. 5 (No)): 70%
plaque area, percentage response to control assay (LHRH; LHRH + 10^-6 M, Exp. 1 (Pre)): 110%
plaque area, percentage response to control assay (LHRH; LHRH + 10^-6 M, Exp. 2 (No)): 74%
plaque area, percentage response to control assay (LHRH; LHRH + 10^-6 M, Exp. 3 (Pre)): 98%
plaque area, percentage response to control assay (LHRH; LHRH + 10^-6 M, Exp. 4 (Pre)): 81%
plaque area, percentage response to control assay (LHRH; LHRH + 10^-6 M, Exp. 5 (No)): 81%
plaque area, percentage response to control assay (LHRH; LHRH + 10^-7 M, Exp. 1 (Pre)): 101%
plaque area, percentage response to control assay (LHRH; LHRH + 10^-7 M, Exp. 2 (No)): 74%
plaque area, percentage response to control assay (LHRH; LHRH + 10^-7 M, Exp. 3 (Pre)): 88%
plaque area, percentage response to control assay (LHRH; LHRH + 10^-7 M, Exp. 4 (Pre)): 78%
plaque area, percentage response to control assay (LHRH; LHRH + 10^-7 M, Exp. 5 (No)): 115%
plaque area, percentage response to control assay (LHRH; LHRH + 10^-8 M, Exp. 1 (Pre)): 105%
plaque area, percentage response to control assay (LHRH; LHRH + 10^-8 M, Exp. 2 (No)): 83%
plaque area, percentage response to control assay (LHRH; LHRH + 10^-8 M, Exp. 4 (Pre)): 96%
plaque area, percentage response to control assay (LHRH; LHRH + 10^-8 M, Exp. 5 (No)): 92%
plaque area, percentage response to control assay (LHRH; LHRH + 10^-9 M, Exp. 1 (Pre)): 119%
plaque area, percentage response to control assay (LHRH; LHRH + 10^-9 M, Exp. 2 (No)): 84%
plaque area, percentage response to control assay (LHRH; LHRH + 10^-9 M, Exp. 4 (Pre)): 95%
plaque area, percentage response to control assay (LHRH; LHRH + 10^-9 M, Exp. 5 (No)): 123%

insulin: control coating protein [reference compound]
binding on control plates relative to binding to complementary peptide plates (^125 I-ACTH): less than 5%
binding of ACTH (1-24) to coated microtiter wells (in words) (ACTH (1-24); 10 ug ACTH, ELISA): not by insulin coated microtiter wells

GVHLHRAPLLAHRLAPAEVFHGVR [HTCA]
ACTH-HTCA binding that was specific (ACTH (1-24); 3.7 nmol/well HTCA coating, competition with soluble HTCA): about 90%
Kd (ACTH (1-24); wells coated with 3.7 nmol/well HTCA, 3.7 nmol ACTH, read-out: Kd (Scatchard analysis) of ACTH-HTCA binding): 1900 nM

APAEVFHGVR [10-mer]
CPM bound ^125 I-ACTH (I^125 ACTH (1-39); conc ^125 I-ATCH): 8,927 CPM and 9,072 CPM
CPM bound ^125 I-ACTH (I^125 ACTH (1-39); [1]): 345 CPM and 350 CPM

FHGVR [5-mer, H2 N-Phe-His-Gly-Val-Arg-COOH]
CPM bound ^125 I-ACTH (I^125 ACTH (1-39); 1:3 dilution ^125 I-ATCH): 3,514 CPM and 3,655 CPM
CPM bound ^125 I-ACTH (I^125 ACTH (1-39); 1:3 dilution ^125 I-ATCH, + excess ACTH): 97 CPM and 95 CPM
CPM bound ^125 I-ACTH (I^125 ACTH (1-39); 1:9 dilution ^125 I-ATCH): 995 CPM and 993 CPM
CPM bound ^125 I-ACTH (I^125 ACTH (1-39); [1]): 233 CPM and 245 CPM

HRAPLLAHRLAPAEVFHGVR [20-mer]
CPM bound ^125 I-ACTH (I^125 ACTH (1-39); 1:3 dilution ^125 I-ATCH): 613 CPM and 625 CPM

— patent US5077195A, “Polypeptides complementary to peptides or proteins having an amino acid sequence or nucleotide coding sequence at least partially known and methods of design therefor” (Board of Reagents, The University of Texas System, priority 1986, dated 1991)
